The nature of data set [1]: Side effects of systemic therapeutic use. Format: in vivo, human. Particulars: systemic therapeutic use in the context of the invention. The text has this: In line with the reaction kinetic knowledge from the topical application of ClO2 solutions by Noszticzius et al., it was possible to confirm in the course of the present invention that, contrary to the earlier fears of parts of the professional world, a systemic therapeutic use of reactive oxidative species such as ClO2 need not in any way be accompanied by undesirable or even damaging effects.

Another data set deals with coronavirus. Conditions: cited from earlier work.
The subject of a further data set is human coronavirus. Particulars: cited from earlier work.
For data set [2] the following is noted: humans; intake over a period of 14 days; cited from earlier work.

As to `[O][Cl+][O-]` [chlorine dioxide], the “serious side effects or deaths” value in data set [1] is “no such effects have come to light”. The effectiveness against coronavirus entry in the data set on coronavirus is on record as “effective against coronavirus”. Moreover, the “effectiveness against human coronavirus” value in the data set on human coronavirus was “effective against human coronavirus”. Moreover, the “lethal dose LD50” value in data set [2] is 292 mg per kilogram of body weight per day.

The values are drawn from patent US20210338715A1, “PHARMACEUTICAL COMPOSITION FOR THE TREATMENT OF COVID-19” (RADINOR, LLC, priority 2020, published 2021).
